Experimental data: ChEMBL document CHEMBL1128881, “The in vitro effects of three lysosomotropic detergents against three human tumor cell lines” (Bioorg Med Chem Lett, 1995)

Legend:
[1] = Dissociation constant was measured in water; format: physicochemical
[2] = Tested for inhibition of DNA synthesis at a dose range of 1.9-2.4 ug/ml after 30 min; range of 8-10 uM; format: functional

| pKa ([1]; water, read-out: pKa) | pKa ([1]; buffer) | SMILES | further results |
| --- | --- | --- | --- |
| 7.5 | – | CCCCCCCCCCCCNC(=O)[C@@H](N)CO | – |
| – | – | CCCCCCCCCCCCNC(=O)[C@@H](N)COC | IC50 [2]: 10 µM; pKa [1]: 5.9 |
| – | 7.5 | CCCCCCCCCCCCn1ccnc1 [listing 1 of 2 here] | – |
| 6.3 | – | CCCCCCCCCCCCn1ccnc1 [listing 2 of 2 here] | – |
| – | 5.8 | CCCCCCCCCCCCNC(=O)[C@@H](N)CO.Cl | – |

| SMILES | pKa ([1]; water, read-out: pKa) | pKa ([1]; buffer) | further results |
| --- | --- | --- | --- |
| Cn1ccnc1 [1-METHYLIMIDAZOLE] | 7 | – | – |
